Data from patent publication US8440442B2, “Method of assaying 5-FU” (Myriad Genetics, Inc, priority 2009, dated 2013).

Molecular target: T1, dihydropyrimidine dehydrogenase (DPD) (Homo sapiens, UniProt Q12882)
T1 construct: from tissue; host or cells: donor whole blood (K2EDTA), plasma separated from it, and WBC/buffy coat
T1 sequence (Q12882 4-1025): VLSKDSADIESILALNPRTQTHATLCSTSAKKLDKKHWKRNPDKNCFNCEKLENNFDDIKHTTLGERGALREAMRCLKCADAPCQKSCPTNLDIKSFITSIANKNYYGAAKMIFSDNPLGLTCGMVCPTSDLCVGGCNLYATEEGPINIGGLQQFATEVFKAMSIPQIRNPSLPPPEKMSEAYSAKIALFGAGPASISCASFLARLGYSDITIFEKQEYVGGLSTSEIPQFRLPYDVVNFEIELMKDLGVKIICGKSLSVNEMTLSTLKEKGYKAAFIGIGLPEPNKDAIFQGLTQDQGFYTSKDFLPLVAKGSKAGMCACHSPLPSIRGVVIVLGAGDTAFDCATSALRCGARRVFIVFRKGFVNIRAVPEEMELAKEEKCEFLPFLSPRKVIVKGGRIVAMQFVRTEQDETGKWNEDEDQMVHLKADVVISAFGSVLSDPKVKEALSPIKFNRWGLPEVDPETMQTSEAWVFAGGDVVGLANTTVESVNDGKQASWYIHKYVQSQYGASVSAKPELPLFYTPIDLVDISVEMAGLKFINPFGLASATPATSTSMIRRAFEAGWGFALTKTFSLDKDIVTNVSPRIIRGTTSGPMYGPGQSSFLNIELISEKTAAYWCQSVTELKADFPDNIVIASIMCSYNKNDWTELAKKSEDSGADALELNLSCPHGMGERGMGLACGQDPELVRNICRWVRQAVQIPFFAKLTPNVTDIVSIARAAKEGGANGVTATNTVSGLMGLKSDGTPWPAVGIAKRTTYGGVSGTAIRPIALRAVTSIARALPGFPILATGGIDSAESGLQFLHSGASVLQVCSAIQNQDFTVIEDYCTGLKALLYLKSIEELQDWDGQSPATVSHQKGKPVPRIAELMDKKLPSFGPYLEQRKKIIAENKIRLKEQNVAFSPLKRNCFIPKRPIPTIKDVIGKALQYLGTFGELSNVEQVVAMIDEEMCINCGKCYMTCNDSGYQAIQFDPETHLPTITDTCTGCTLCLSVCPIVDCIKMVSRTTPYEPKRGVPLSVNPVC
Experiment: Extended incubation of gimeracil in blood before plasma separation
Type: biochemical
Details: gimeracil 1200 ng/mL; for 5-FU Concentration 24 hrs after plasma separation / 5-FU Concentration Upon plasma separation: 500 ng/mL 5-FU
Procedure: In the following illustrative examples, 5-FU was measured using an antibody-based agglutination assay on the Olympus AU680 Analyzer using an antibody disclosed in U.S. Pat. No. 7,205,116. Specifically, the concentration of 5-FU in a sample is determined based on the absorbance of a sample, which is determined by the amount of aggregation by the nanoparticles. The system requires two reagents, which when mixed in the absence of free 5-FU will form large aggregates of nanoparticles and scatter light to result in a higher absorption value. In the presence of free 5-FU, the agglutination reaction becomes somewhat inhibited and scattering of light is less, causing a lower absorption value. The instrument is calibrated twice monthly, and a curve is generated (Absorbance vs. 5-FU concentration). Absorbance values from individual samples are compared against this curve to determine concentration.
Generally in the agglutination assay, 95 μl of a buffer containing 5-FU-labeled amino-dextran is pipetted to a cuvette, followed by 7 μL of a filtered plasma sample. The sample and reagent are mixed and then incubated for about 3.5 minutes. 95 μl of 5-FU antibody-conjugated nanoparticles is pipetted into the cuvette and mixed. The complete reaction incubates for about 6.2 minutes. A series of 27 measurements at 600 nm are taken at regular intervals by the AU680 analyzer throughout this process, and 5-FU concentration is calculated using the measurements from two specific time points.
Six tubes of blood (spray-on K2EDTA tubes, 6 mL) was drawn from each of six donors, and the blood tubes were inverted several times to mix the anti-coagulant into the blood. Blood tubes were pooled and kept separate by donor. An aliquot of each donor's blood was transferred to a new tube, and a calculated volume of 5-FU stock (at 200 ng/μL) was added to each blood sample to achieve a final concentration of 500 ng/mL 5-FU. Spiked blood samples were aliquotted to clean tubes, 4 mL of blood to each of 8 tubes per donor. Gimeracil in methanol solvent was added to the blood tubes to reach a final concentration of 1200 ng/mL. For negative control, methanol only is added to the control blood tube. Blood tubes sat at room temperature for 45 minutes, 24 hours, or 48 hours before plasma separation. At the appropriate times, the blood tubes were centrifuged at 2000×g for 10 minutes at room temperature for plasma separation. The plasma was aspirated immediately after centrifugation and dispensed into clean cryovials. For 5-FU assays, the plasma samples were run under standard conditions for the Olympus AU680 analyzer, as described above (200 μL, spin for 15 minutes at 12,500 rpm). Measurements of 5-FU concentration were taken after plasma collection and for 2 days following the initial reading. Plasma was stored at room temperature during the interval.

Oc1cc(O)c(Cl)cn1 [Gimeracil, 5-chloro-2,4-dihydroxypyridine]
5-FU Concentration 24 hrs after plasma separation (45 minute incubation in blood): 538.1 ng/mL
5-FU Concentration Upon plasma separation (45 minute incubation in blood): 533.3 ng/mL
5-FU Concentration 24 hrs after plasma separation (24 hours incubation in blood): 551.9 ng/mL
5-FU Concentration Upon plasma separation (24 hours incubation in blood): 551.8 ng/mL
5-FU Concentration 24 hrs after plasma separation (48 hours incubation in blood): 578.4 ng/mL
5-FU Concentration Upon plasma separation (48 hours incubation in blood): 581.3 ng/mL
effect of keeping gimeracil in blood without plasma separation for a longer time (24 or 48 hours in blood (FIG. 5)): may cause 5-FU concentration to artificially increase
